In patent publication EP4803511A1, “SMALL MOLECULE COMPOUND HAVING SULFONIC ACID OR SULFINIC ACID LACTONE STRUCTURE, COMPOSITION AND USE THEREOF” (Hangzhou Phecdamed Co., Ltd., priority 2023, dated 2025):
In brackets after ≈: the same amount, converted by molar mass.

What was measured:
HaCaT cells = assay: ROS content / ROS scavenging rate in HaCaT after UVB radiation (DCFH-DA); type: cell-based, human; conditions: content 0.0025%; HaCaT cells after UVB radiation
Source text: Oxidative reactions such as respiration and metabolism in organisms generate reactive free radicals. Under normal bodily conditions, free radicals have a stable scavenging system, so that the free radical content of the body is kept at a relatively low concentration. Oxidative stress (OS) refers to an imbalance between oxidation and antioxidation in the body due to endogenous and/or exogenous stimuli, resulting in excessive free radical production. Excessive free radicals produce a series of negative effects in the body, including oxidative damage to biomolecules and further causing cell death and tissue damage, etc. In organisms, almost all ROS, except for trace amounts utilized by the body, should be promptly scavenged. Medium Wave Erythema Effect Ultraviolet (UVB) (280-319 nm) radiation damage is the most important factor leading to photoaging of the skin, primarily damaging keratinocytes (HaCaT), specifically manifested as the accumulation of photoproducts, increased ROS, and exacerbated oxidative damage, etc. Over long periods of evolution, organisms have developed a complete antioxidant system, maintaining a dynamic balance between the production and elimination of free radicals. This is an adaptive mechanism of organisms, and the main members include antioxidant enzymes, antioxidants, and proteins that separate transition metals, all of which can specifically limit oxidative damage to the body. Therefore, the antioxidant efficacy of a test compound can be evaluated by detecting the ROS scavenging rate in keratinocytes after UVB radiation.
• 1) Cell inoculation: HaCaT cells were inoculated into a 96-well plate at 2 × 10^4/well, cultured in an incubator (37 °C, 5% CO2) for 12 hrs, and a control group (120 mJ/cm^2 + vehicle control), a low concentration group (120 mJ/cm^2 + low concentration compound), a medium concentration group (120 mJ/cm^2 + medium concentration compound), and a high concentration group (120 mJ/cm^2 + high concentration compound) were respectively provided. • 2) UVB modeling: The HaCaT cells were washed 3 times with D'Hanks before UVB radiation, 50 µL of D'Hanks was added into the wells, to make the cells to be immersed, and the control group was coated with tinfoil and placed in the dark. For the test groups, UVB modeling was performed on the group requiring radiation, respectively. • 3) Administration: DMEM medium containing different concentrations of compound were added to each test group for continued culture for 24 hrs. • 4) Transferring the ROS fluorescent probe: DCFH-DA was Diluted to a final concentration of 10 µmol/L using PBS at a dilution ratio of 1:1000. The culture medium in all wells except the bare cell wells was discarded. After washing three times with PBS, 200 µL of DCFH-DA working solution was added to each well, then incubated in a CO2 incubator for 30 min, and after incubation, the cells in each well were washed with PBS for 3 times. • 5) Fluorescence analysis. The 96-well plate to be tested was placed on the detection stage of the fluorescence microplate reader, with the […] set to 525 nm, the excitation light wavelength set to 488 nm, and the reading was analyzed.
ROS scavenging rate (%) = (S(Modelcontrolgroup)−S(Samplegroup))/(S(Modelcontrolgroup)) × 100% [formula] wherein S is fluorescence intensity.

[1] = Kinetic solubility in aqueous buffer; type: physicochemical; conditions: 2 hrs at 25 °C
Protocol: Experimental Methods: 30 µL of the 10 mM DMSO stock solution of the compound to be test was placed in a solubility sample plate (duplicate), 970 µL of aqueous buffer solution was added to the plate, and the plate was sealed with a sealing membrane and shaken at 1100 rpm for 2 hrs at 25 °C. The sample in the solubility plate was transferred to a filter plate, and filtered to obtain a filtrate. 10 µL of the filtrate was transferred into 980 µL of methanol along with 10 µL of DMSO, and then the solution was diluted 10-fold with methanol:water (1:1), and the resulting sample was analyzed by LC-MS/MS to obtain Area (filtered). Separately, 10 mM of the DMSO stock solution of the compound to be test was diluted to 300 µM with DMSO. 10 µL of this 300 µM DMSO solution and 10 µL of aqueous buffer solution were added into 980 µL of methanol, and then diluted 10-fold with methanol:water (1:1), and the resulting sample was analyzed by LC-MS/MS to obtain Area (std). The kinetic solubility was calculated according to the following formula: Solubility(μM) = (Areafiltered × DFfiltered)/(Areastd × DFstd) × [std] × DFstd [formula] wherein DF is the dilution factor.

solubility kinetic at 2 h [1] [µM]	Structure (SMILES)	ROS scavenging rate (HaCaT cells) [%]
–	CN(C)C(=O)Oc1ccc2c(c1)OS(=O)(=O)c1cc(OC(=O)N(C)C)ccc1-2 [Compound I-13]	35
–	CC(C)C(=O)Oc1ccc2c(c1)OS(=O)(=O)c1cc(OC(=O)C(C)C)ccc1-2 [Compound I-14]	29
98.8 (≈ 22.5 µg/mL)	O=c1oc2cc(O)ccc2c2ccc(O)cc12 [Urolithin A, reference compound]	–
